Experimental data from patent US20260078120A1, “SUBSTITUTED PYRIDOPYRIMIDINONES” (MIRATI THERAPEUTICS, INC., priority 2022, published 2026).
Where two headings read alike, the source gives them in different places.

Columns and labels:
[1] = system: T47D (PI3Kα H1047R mutant) cells; test: CellTiter-Glo 2.0 luminescent cell viability assay, 72 hours, T47D cells; format: cell-based; conditions: Homo sapiens, T47D, 72 h
Outline: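 Cells seeded at 1000 per well overnight were dosed with a 10-concentration, 1:4 series starting at 10 µM and incubated ~72 h at 37° C. Viability was read by CellTiter-Glo 2.0 luminescence after 30 min at room temperature. IC50 came from four-parameter fits of percent vehicle control.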

[2] = system: SKBR3 (PI3Kα wild type) cells; test: CellTiter-Glo 2.0 luminescent cell viability assay, 72 hours, SKBR3 cells; format: cell-based; conditions: Homo sapiens, SK-BR-3, 72 h
Outline: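 Viability measured via CTG luminescence following roughly 72 hours of compound exposure at 37° C. Dosing used a 10 um starting concentration diluted 1:4 over 10 points; percent-of-vehicle data fitted with a variable-slope four-parameter model for IC50.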

[3] = T47D (PI3Kα H1047R mutant) cells, CellTiter-Glo, approximately 72 hours, read-out: T47D (H1047R mutant) Viability IC50
[4] = SKBR3 (PI3Kα wild type) cells, CellTiter-Glo, approximately 72 hours, read-out: SKBR3 (WT) Viability IC50

SMILES | IC50 ([1]; read-out: T47D (H1047R mutant) Viability IC50 (nM)) | IC50 ([2]; read-out: SKBR3 (WT) Viability IC50 (nM)) | IC50 [1, 3] | IC50 [2, 4]
Cc1cc(C(C)Nc2ccccc2C(=O)O)c2nc(N3CCOCC3)cc(=O)n2c1 (stereo not drawn) [Example 11-420, 2-((1-(7-methyl-2-morpholino-4-oxo-4H-pyrido[1,2-a]pyrimidin-9-yl)ethyl)amino)benzoic acid] | 1310 nM | > 10000 nM |  | 
Cc1cc(C(C)Nc2ccccc2)c2nc(N3CCOCC3)cc(=O)n2c1 (stereo not drawn) [Example 11-421, 7-methyl-2-morpholino-9-(1-(phenylamino)ethyl)-4H-pyrido[1,2-a]pyrimidin-4-one] |  |  | > 10000 nM | > 10000 nM
C[C@H](Nc1ccccc1C(=O)O)c1cccn2c(=O)cc(N3CCCCC3)nc12 [Example 11-423, (S)-2-((1-(4-oxo-2-(piperidin-1-yl)-4H-pyrido[1,2-a]pyrimidin-9-yl)ethyl)amino)benzoic acid] |  |  | > 10000 nM | > 10000 nM
Cc1cc([C@@H](C)Nc2ccccc2C(=O)O)c2nc(N3CCn4ccnc4C3)c(C)c(=O)n2c1 [Example 11-429, (R)-2-((1-(2-(5,6-dihydroimidazo[1,2-a]pyrazin-7(8H)-yl)-3,7-dimethyl-4-oxo-4H-pyrido[1,2-a]pyrimidin-9-yl)ethyl)amino)benzoic acid] |  |  | 3140 nM | > 10000 nM
Cc1cc([C@@H](C)Nc2ccccc2C(=O)O)c2nc(N3CCn4cncc4C3)c(C)c(=O)n2c1 [Example 11-430, (R)-2-((1-(2-(5,6-dihydroimidazo[1,5-a]pyrazin-7(8H)-yl)-3,7-dimethyl-4-oxo-4H-pyrido[1,2-a]pyrimidin-9-yl)ethyl)amino)benzoic acid] |  |  | 4670 nM | > 10000 nM
Cc1cc([C@@H](C)Nc2ccccc2C(=O)O)c2nc(N3CCn4nccc4C3)c(C)c(=O)n2c1 [Example 11-431, (R)-2-((1-(2-(6,7-dihydropyrazolo[1,5-a]pyrazin-5(4H)-yl)-3,7-dimethyl-4-oxo-4H-pyrido[1,2-a]pyrimidin-9-yl)ethyl)amino)benzoic acid] |  |  | 403 nM | > 10000 nM
Cc1cc([C@@H](C)Nc2ccccc2C(=O)O)c2nc(N3CCC(n4cccn4)CC3)c(C)c(=O)n2c1 [Example 11-432, (R)-2-((1-(2-(4-(1H-pyrazol-1-yl)piperidin-1-yl)-3,7-dimethyl-4-oxo-4H-pyrido[1,2-a]pyrimidin-9-yl)ethyl)amino)benzoic acid] |  |  | 122 nM | > 10000 nM
Cc1cc([C@@H](C)Nc2ccccc2C(=O)O)c2nc(N3CCn4cc(C(F)(F)F)nc4C3)c(C)c(=O)n2c1 [Example 11-433, (R)-2-((1-(3,7-dimethyl-4-oxo-2-(2-(trifluoromethyl)-5,6-dihydroimidazo[1,2-a]pyrazin-7(8H)-yl)-4H-pyrido[1,2-a]pyrimidin-9-yl)ethyl)amino)benzoic acid] |  |  | 3010 nM | > 10000 nM
Cc1cc([C@@H](C)Nc2ccccc2C(=O)O)c2nc(N3CCN(c4ccc(C(F)(F)F)cn4)CC3)c(C)c(=O)n2c1 [Example 11-434, (R)-2-((1-(3,7-dimethyl-4-oxo-2-(4-(5-(trifluoromethyl)pyridin-2-yl)piperazin-1-yl)-4H-pyrido[1,2-a]pyrimidin-9-yl)ethyl)amino)benzoic acid] |  |  | 138 nM | 8310 nM
Cc1cc([C@@H](C)Nc2ccccc2C(=O)O)c2nc(N3CCN(c4nc5cc(C(F)(F)F)ccc5s4)CC3)c(C)c(=O)n2c1 [Example 11-435, (R)-2-((1-(3,7-dimethyl-4-oxo-2-(4-(5-(trifluoromethyl)benzo[d]thiazol-2-yl)piperazin-1-yl)-4H-pyrido[1,2-a]pyrimidin-9-yl)ethyl)amino)benzoic acid] |  |  | 356 nM | > 10000 nM
Cc1cc([C@@H](C)Nc2ccccc2C(=O)O)c2nc(N3CCC4(C3)CC(F)(F)C4(F)F)c(C)c(=O)n2c1 (stereo partly drawn) [Example 11-436, 2-(((1R)-1-(3,7-dimethyl-4-oxo-2-(1,1,2,2-tetrafluoro-6-azaspiro[3.4]octan-6-yl)-4H-pyrido[1,2-a]pyrimidin-9-yl)ethyl)amino)benzoic acid] |  |  | 641 nM | > 10000 nM
Cc1cc([C@@H](C)Nc2ccccc2C(=O)O)c2nc(N3CCN(c4cccc(C#N)c4C)CC3)c(C)c(=O)n2c1 [Example 11-438, (R)-2-((1-(2-(4-(3-cyano-2-methylphenyl)piperazin-1-yl)-3,7-dimethyl-4-oxo-4H-pyrido[1,2-a]pyrimidin-9-yl)ethyl)amino)benzoic acid] |  |  | 188 nM | > 10000 nM
Cc1cc([C@@H](C)Nc2ccccc2C(=O)O)c2nc(N3CCN(c4cccc(C(F)(F)F)c4)CC3)c(C)c(=O)n2c1 [Example 11-439, (R)-2-((1-(3,7-dimethyl-4-oxo-2-(4-(3-(trifluoromethyl)phenyl)piperazin-1-yl)-4H-pyrido[1,2-a]pyrimidin-9-yl)ethyl)amino)benzoic acid] |  |  | 241 nM | > 10000 nM
Cc1cc([C@@H](C)Nc2ccccc2C(=O)O)c2nc(N3CCN(c4ccccc4F)CC3)c(C)c(=O)n2c1 [Example 11-440, (R)-2-((1-(2-(4-(2-fluorophenyl)piperazin-1-yl)-3,7-dimethyl-4-oxo-4H-pyrido[1,2-a]pyrimidin-9-yl)ethyl)amino)benzoic acid] |  |  | 252 nM | > 10000 nM
Cc1cc([C@@H](C)Nc2ccccc2C(=O)O)c2nc(N3CCN(c4ccncc4)CC3)c(C)c(=O)n2c1 [Example 11-441, (R)-2-((1-(3,7-dimethyl-4-oxo-2-(4-(pyridin-4-yl)piperazin-1-yl)-4H-pyrido[1,2-a]pyrimidin-9-yl)ethyl)amino)benzoic acid] |  |  | 408 nM | > 10000 nM
Cc1cc([C@@H](C)Nc2ccccc2C(=O)O)c2nc(N3CC(c4cc(C(F)(F)F)on4)C3)c(C)c(=O)n2c1 [Example 11-442, (R)-2-((1-(3,7-dimethyl-4-oxo-2-(3-(5-(trifluoromethyl)isoxazol-3-yl)azetidin-1-yl)-4H-pyrido[1,2-a]pyrimidin-9-yl)ethyl)amino)benzoic acid] |  |  | 871 nM | > 10000 nM
Cc1cc([C@@H](C)Nc2ccccc2C(=O)O)c2nc(N3C[C@H]4C[C@@H]3CN4CC(F)F)c(C)c(=O)n2c1 [Example 11-443, 2-(((R)-1-(2-((1R,4R)-5-(2,2-difluoroethyl)-2,5-diazabicyclo[2.2.1]heptan-2-yl)-3,7-dimethyl-4-oxo-4H-pyrido[1,2-a]pyrimidin-9-yl)ethyl)amino)benzoic acid] |  |  | 130 nM | > 10000 nM
Cc1cc([C@@H](C)Nc2ccccc2C(=O)O)c2nc(N3CC4CC(F)(F)CC4C3)c(C)c(=O)n2c1 (stereo partly drawn) [Example 11-444, 2-(((1R)-1-(2-(5,5-difluorohexahydrocyclopenta[c]pyrrol-2(1H)-yl)-3,7-dimethyl-4-oxo-4H-pyrido[1,2-a]pyrimidin-9-yl)ethyl)amino)benzoic acid] |  |  | 234 nM | > 10000 nM
Cc1cc([C@@H](C)Nc2ccccc2C(=O)O)c2nc(N3C[C@@H]4[C@H](C3)[C@H]4C(F)(F)F)c(C)c(=O)n2c1 [Example 11-445, 2-(((R)-1-(3,7-dimethyl-4-oxo-2-((1R,5S,6R)-6-(trifluoromethyl)-3-azabicyclo[3.1.0]hexan-3-yl)-4H-pyrido[1,2-a]pyrimidin-9-yl)ethyl)amino)benzoic acid] |  |  | 287 nM | > 10000 nM
Cc1cc([C@@H](C)Nc2ccccc2C(=O)O)c2nc(N3CCN(c4nc(C)cs4)CC3)c(C)c(=O)n2c1 [Example 11-446, (R)-2-((1-(3,7-dimethyl-2-(4-(4-methylthiazol-2-yl)piperazin-1-yl)-4-oxo-4H-pyrido[1,2-a]pyrimidin-9-yl)ethyl)amino)benzoic acid] |  |  | 300 nM | > 10000 nM
Cc1cc([C@@H](C)Nc2ccccc2C(=O)O)c2nc(N3CCC4(CCC(F)(F)C4)C3)c(C)c(=O)n2c1 (stereo partly drawn) [Example 11-447, 2-(((1R)-1-(2-(7,7-difluoro-2-azaspiro[4.4]nonan-2-yl)-3,7-dimethyl-4-oxo-4H-pyrido[1,2-a]pyrimidin-9-yl)ethyl)amino)benzoic acid] |  |  | 645 nM | > 10000 nM
